Reference: patent US20050281889A1, “Nutritional supplement for adults” (priority 2004, published 2005)

Legend:
blood lymphocytes = test: Zinc dose response: lymphocyte response to mitogen PHA (thymidine uptake, 72 h culture); format: in vivo, human; conditions: for Lymphocyte response to PHA (stimulation index): adults, age 20-50 years
Description: The basic concept underlying the assessment of the most optimum nutrient amounts for a given age group uses the principle of “dose-response graphs”. At least four groups of individuals were provided with various amounts of a given nutrient and their immune responses were measured using established and accepted techniques. The amount of a nutrient that gave the best response was considered the optimum amount. Dose response graphs were determined for all vitamins and trace elements considered essential for human health, particularly immunity.
Data for the dose response chart for zinc in a group of 20 to 50 year old adults is shown in FIG. 1, with the total amount of zinc taken is shown for each group. To determine the magnitude of immune response, an aliquot of blood was withdrawn from each subject in the study, blood lymphocytes were separated, washed and mixed with the mitogen phytohemagglutinin (PHA) in previously determined optimum amount. The optimum amount of PHA used in the experiments was predetermined by a set of dose response graphs using lymphocytes of a healthy donor and four different concentrations of PHA. After culture in a sterile environment for 72 hours, the cells were washed and mixed with radioactive thymidine. The same steps were undertaken in a control sample in which only the culture medium was used, not PHA. The cells were washed and radioactivity determined.
Dietary intake of zinc was calculated based on three 24-hour recalls and by the food frequency questionnaire methods.

[1] = in vivo; cited from earlier work

SMILES | immune response (blood lymphocytes; 12 mg of zinc intake, in combination with zinc from a balanced diet) | Lymphocyte response to PHA (stimulation index) (blood lymphocytes; supplemental zinc 12 mg) | Lymphocyte response to PHA (stimulation index) (blood lymphocytes; supplemental zinc 25 mg) | Lymphocyte response to PHA (stimulation index) (blood lymphocytes; supplemental zinc 50 mg) | biologic half-life in the body [1]
[Zn] [zinc] | best immune response | 78 | 48 | 41 | –
Cc1ncc(C[n+]2csc(CCO)c2C)c(N)n1 [Thiamin] | – | – | – | – | about 15 days
